The values that follow come from ChEMBL document CHEMBL1212754, “SmQnr contributes to intrinsic resistance to quinolones in Stenotrophomonas maltophilia” (2010).

Structures are written as SMILES. In brackets after ≈: the same amount, converted by molar mass.

Format in all cases: functional
Test [1] concerns Stenotrophomonas maltophilia. The experiment in a line: Antibacterial activity against Stenotrophomonas maltophilia MBS82 deficient in Smqnr gene by epsilon test.
Test [2] has as its system Stenotrophomonas maltophilia. The test is described as follows: Antibacterial activity against Stenotrophomonas maltophilia D457 containing chromosomally encoded Smqnr gene by epsilon test.
Test [3] deals with Stenotrophomonas maltophilia. The test is described as follows: Antibacterial activity against Stenotrophomonas maltophilia MBS109 containing chromosomally encoded Smqnr gene by epsilon test.
The test system of test [4] is Stenotrophomonas maltophilia. The test is described as follows: Antibacterial activity against Stenotrophomonas maltophilia MBS100 deficient in Smqnr gene by epsilon test.
The subject of test [5] is Stenotrophomonas maltophilia. The test is described as follows: Antibacterial activity against Stenotrophomonas maltophilia MBS108 containing both chromosomally and plasmid encoded Smqnr gene by epsilon test.
The test system of test [6] is Stenotrophomonas maltophilia. The experiment in a line: Antibacterial activity against Stenotrophomonas maltophilia MBS101 containing plasmid encoded Smqnr gene by epsilon test.

In the case of `C[C@H]1COc2c(N3CCN(C)CC3)c(F)cc3c(=O)c(C(=O)O)cn1c23.C[C@H]1COc2c(N3CCN(C)CC3)c(F)cc3c(=O)c(C(=O)O)cn1c23.O` [LEVOFLOXACIN], the MIC (usually the lowest concentration that inhibits growth of the organism) came to 0.25 µg/mL in test [1]; 0.5 µg/mL in test [2]; 0.5 µg/mL in test [3]; 0.25 µg/mL in test [4]; 1 µg/mL in test [5]; 1 µg/mL in test [6].

As to `CC1COc2c(N3CCN(C)CC3)c(F)cc3c(=O)c(C(=O)O)cn1c23` (stereo not drawn) [OFLOXACIN], the minimum inhibitory concentration (MIC) in test [1] is 0.5 µg/mL (≈ 1.38 µM); in test [2], 1 µg/mL (≈ 2.77 µM); in test [3] it was 1 µg/mL (≈ 2.77 µM); in test [4], 0.5 µg/mL (≈ 1.38 µM); in test [5], 3 µg/mL (≈ 8.3 µM); in test [6], 3 µg/mL (≈ 8.3 µM).

As for `COc1c(N2CCNC(C)C2)c(F)cc2c(=O)c(C(=O)O)cn(C3CC3)c12` (stereo not drawn) [GATIFLOXACIN], the MIC in test [1] worked out at 0.125 µg/mL (≈ 0.333 µM); in test [2], 0.25 µg/mL (≈ 0.666 µM); in test [3], 0.25 µg/mL (≈ 0.666 µM); in test [4], 0.125 µg/mL (≈ 0.333 µM); in test [5] it was 0.75 µg/mL (≈ 2 µM); in test [6], 0.75 µg/mL (≈ 2 µM).

For the molecule `COc1c(N2C[C@@H]3CCCN[C@@H]3C2)c(F)cc2c(=O)c(C(=O)O)cn(C3CC3)c12` [MOXIFLOXACIN], the MIC in test [1] was 0.064 µg/mL (≈ 0.159 µM); in test [2], 0.19 µg/mL (≈ 0.473 µM); in test [3] it was 0.19 µg/mL (≈ 0.473 µM); in test [4], 0.064 µg/mL (≈ 0.159 µM); in test [5] it was 0.75 µg/mL (≈ 1.87 µM); in test [6], 0.75 µg/mL (≈ 1.87 µM).

Consider `O=C(O)c1cn(C2CC2)c2cc(N3CCNCC3)c(F)cc2c1=O` [CIPROFLOXACIN], for which the MIC came out at 0.75 µg/mL (≈ 2.26 µM) in test [2], 0.75 µg/mL (≈ 2.26 µM) in test [3], 2 µg/mL (≈ 6.04 µM) in test [5] and 2 µg/mL (≈ 6.04 µM) in test [6].
